Assay results: patent publication US10501481B2, “Heterocyclic compounds and their use in preventing or treating bacterial infections” (priority 2015, dated 2019)
pIC50: −log10 of the molar value.

Tests used:
[1] = test system: E. coli UFR52 (TEM-1, SHV-12, IMP-8); experiment: MIC broth microdilution, alone and synergy with ceftazidime
[2] = test system: K. pneumoniae 160143 (TEM-1, SHV-1, CTX-M-15, KPC-2, OXA-1); experiment: as above; settings: strain 160143; compound fixed at 4 μg/mL
[3] = test system: E. coli 190317 (TEM-1, SHV-12, CTX-M-15, OXA-1); experiment: as above; settings: strain 190317; compound fixed at 4 μg/mL
[4] = test system: K. oxytoca UFR21 (TEM-1, CTX-M-15, OXA-48); experiment: as above
[5] = test system: E. cloacae UFR70 (TEM-1, CTX-M-15, CMY-2, OXA-1, Porin loss); experiment: as above
[6] = test system: E. cloacae UFR38 (CTX-M-15, NDM-1); experiment: as above
[7] = biological target: T1, OXA-48 (Klebsiella pneumoniae, UniProt Q6XEC0); experiment: β-lactamase inhibitory activity, nitrocefin hydrolysis; assay type: biochemical
T1 construct: made in house; host or cells: E. coli
T1 sequence (Q6XEC0 23-265 limits assumed): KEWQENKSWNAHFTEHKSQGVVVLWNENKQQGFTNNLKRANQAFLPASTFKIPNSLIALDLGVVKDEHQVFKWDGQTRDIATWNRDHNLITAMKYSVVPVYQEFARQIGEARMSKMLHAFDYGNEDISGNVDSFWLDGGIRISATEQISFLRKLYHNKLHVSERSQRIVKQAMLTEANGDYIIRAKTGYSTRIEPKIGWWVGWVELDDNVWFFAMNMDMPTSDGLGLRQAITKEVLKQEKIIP
Experimental: (§1) Enzyme activity was monitored by spectrophotometric measurement of nitrocefin (NCF-TOKU-E, N005) hydrolysis at 485 nm, at room temperature and in assay buffer A: 100 mM Phosphate pH7, 2% glycerol and 0.1 mg/mL Bovine serum albumin (Sigma, B4287). […] To a transparent polystyrene plate (Corning, 3628) were added in each well 5 μL DMSO or inhibitor dilutions in DMSO and 80 μL enzyme in buffer A. Plates were immediately read at 485 nm in a microplate spectrophotometer (BioTek, PowerWave HT) to enable background subtraction. After 30 min of pre-incubation at room temperature, 15 μL of NCF (200 μM final) were finally added in each well. Final enzyme concentrations were 0.1 nM (TEM-1), 0.075 nM (SHV-1), 0.4 nM (CTX-M-15), 1 nM (KPC-2), 0.2 nM (P99 AmpC), 0.2 nM (CMY-37), 0.4 nM (AmpC P. aeruginosa), 0.2 nM (OXA-1), 1.2 nM (OXA-11), 0.4 nM (OXA-15) and 0.3 nM (OXA-48). After 20 min incubation at room temperature, plates were once again read at 485 nm. Enzyme activity was obtained by subtracting the final signal by the background, and was converted to enzyme inhibition using non inhibited wells. IC50 curves were fitted to a classical Langmuir equilibrium model with Hill slope using XLFIT (IDBS).

[8] = test system: P. aeruginosa CIP107051 (TEM-24); experiment: MIC broth microdilution, alone and synergy with ceftazidime
[9] = test system: E. cloacae UFR85 (TEM-1, CTX-M-15, derepressed AmpC); experiment: as above; settings: strain UFR85; compound fixed at 4 μg/mL
[10] = test system: E. coli UFR74 (SHV-1, DHA-1); experiment: as above; settings: strain UFR74; compound fixed at 4 μg/mL
[11] = test system: E. coli 131119 (TEM-1, OXA-48); experiment: as above
[12] = test system: K. pneumoniae UFR24 (TEM-1, SHV-2, SHV-11, OXA-1, OXA-48, OXA-47); experiment: as above; settings: strain UFR24; compound fixed at 4 μg/mL
[13] = biological target: T2, OXA-11 (Pseudomonas aeruginosa, UniProt Q06778); experiment: β-lactamase inhibitory activity, nitrocefin hydrolysis; assay type: biochemical
T2 construct: made in house; host or cells: E. coli
T2 sequence (Q06778 21-266): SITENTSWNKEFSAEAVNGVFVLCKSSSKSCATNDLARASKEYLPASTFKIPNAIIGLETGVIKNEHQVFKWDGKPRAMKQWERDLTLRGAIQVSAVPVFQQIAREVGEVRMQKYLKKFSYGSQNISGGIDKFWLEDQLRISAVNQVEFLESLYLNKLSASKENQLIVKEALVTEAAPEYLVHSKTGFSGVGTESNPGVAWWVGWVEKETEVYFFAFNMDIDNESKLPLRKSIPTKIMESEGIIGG
Experimental: as §1

[14] = test system: E. coli UFR61O (TEM-1, KPC-2); experiment: MIC broth microdilution, alone and synergy with ceftazidime; settings: strain UFR61O; compound fixed at 4 μg/mL
[15] = biological target: T3, TEM-1 (Escherichia coli, UniProt P62593); experiment: β-lactamase inhibitory activity, nitrocefin hydrolysis; assay type: biochemical; settings: class (A); 30 min pre-incubation; nitrocefin 200 μM
T3 construct: made in house; host or cells: E. coli
T3 sequence (P62593 24-286 limits assumed): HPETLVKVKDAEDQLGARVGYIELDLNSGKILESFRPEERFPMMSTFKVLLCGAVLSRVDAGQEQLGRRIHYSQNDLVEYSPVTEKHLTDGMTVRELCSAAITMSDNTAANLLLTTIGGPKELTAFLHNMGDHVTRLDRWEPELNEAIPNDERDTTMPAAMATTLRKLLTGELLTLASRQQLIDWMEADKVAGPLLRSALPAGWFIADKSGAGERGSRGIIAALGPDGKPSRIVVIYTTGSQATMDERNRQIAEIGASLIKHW
Experimental: as §1

[16] = biological target: T4, OXA-1 (Escherichia coli, UniProt P13661); experiment: as above; assay type: biochemical
T4 construct: made in house; host or cells: E. coli
T4 sequence (P13661 26-276): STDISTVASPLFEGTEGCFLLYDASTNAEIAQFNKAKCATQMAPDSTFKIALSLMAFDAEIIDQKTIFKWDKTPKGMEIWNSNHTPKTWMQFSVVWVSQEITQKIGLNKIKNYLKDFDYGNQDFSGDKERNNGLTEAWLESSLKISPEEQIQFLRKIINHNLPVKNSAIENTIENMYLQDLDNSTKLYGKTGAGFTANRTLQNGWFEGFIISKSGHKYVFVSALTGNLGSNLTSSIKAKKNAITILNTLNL
Experimental: as §1

[17] = test system: E. coli UFR18 (CTX-M-15, OXA-204); experiment: MIC broth microdilution, alone and synergy with ceftazidime
[18] = test system: P. aeruginosa CIP105250 (OXA-15); experiment: MIC broth microdilution, compounds alone; settings: Pseudomonas aeruginosa, CIP105250, read-out: MIC compounds of the invention alone
[19] = biological target: T5, SHV-1 (Klebsiella pneumoniae, UniProt P0AD64); experiment: β-lactamase inhibitory activity, nitrocefin hydrolysis; assay type: biochemical
T5 construct: made in house; host or cells: E. coli
T5 sequence (P0AD64 22-286): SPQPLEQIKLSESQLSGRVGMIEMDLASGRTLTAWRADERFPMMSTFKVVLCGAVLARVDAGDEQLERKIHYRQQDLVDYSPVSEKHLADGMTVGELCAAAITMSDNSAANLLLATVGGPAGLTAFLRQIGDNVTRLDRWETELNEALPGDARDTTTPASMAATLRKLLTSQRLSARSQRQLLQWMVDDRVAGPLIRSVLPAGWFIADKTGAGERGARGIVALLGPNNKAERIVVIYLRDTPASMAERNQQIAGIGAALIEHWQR
Experimental: as §1

[20] = biological target: T6, KPC-2 (Klebsiella pneumoniae, UniProt Q9F663); experiment: as above; assay type: biochemical
T6 construct: made in house; host or cells: E. coli
T6 sequence (Q9F663 25-293 limits assumed): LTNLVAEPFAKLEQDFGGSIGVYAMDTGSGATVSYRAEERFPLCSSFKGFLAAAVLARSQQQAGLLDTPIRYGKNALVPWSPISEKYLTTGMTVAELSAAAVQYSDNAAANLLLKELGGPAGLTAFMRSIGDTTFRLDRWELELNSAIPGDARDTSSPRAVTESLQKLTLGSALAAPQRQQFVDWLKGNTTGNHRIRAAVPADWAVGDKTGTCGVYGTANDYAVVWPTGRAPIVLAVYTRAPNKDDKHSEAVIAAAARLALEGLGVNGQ
Experimental: as §1

[21] = biological target: T7, P99 AmpC (Enterobacter cloacae, UniProt P05364); experiment: as above; assay type: biochemical; settings: class (C); 30 min pre-incubation; nitrocefin 200 μM
T7 construct: made in house; host or cells: E. coli
T7 sequence (P05364 21-381): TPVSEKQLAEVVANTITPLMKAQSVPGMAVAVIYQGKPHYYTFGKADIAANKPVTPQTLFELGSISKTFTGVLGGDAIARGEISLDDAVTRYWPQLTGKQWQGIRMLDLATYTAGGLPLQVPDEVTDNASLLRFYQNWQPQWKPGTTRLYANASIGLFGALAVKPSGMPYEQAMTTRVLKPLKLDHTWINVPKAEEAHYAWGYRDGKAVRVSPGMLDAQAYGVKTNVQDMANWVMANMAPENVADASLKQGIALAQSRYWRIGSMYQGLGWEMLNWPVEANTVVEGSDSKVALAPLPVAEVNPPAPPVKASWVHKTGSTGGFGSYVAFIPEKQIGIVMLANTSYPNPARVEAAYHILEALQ
Experimental: as §1

[22] = test system: K. pneumoniae BAA-1898 (TEM-1, SHV-11, SHV-12, KPC-2); experiment: microbe, parasite or virus in culture; assay type: cell-based
[23] = test system: E. coli UFR32 (TEM-1, VEB-1, OXA-10); experiment: MIC broth microdilution, alone and synergy with ceftazidime; settings: strain UFR32; compound fixed at 4 μg/mL
[24] = test system: K. pneumoniae UFR77 (CMY-2); experiment: as above
[25] = biological target: T8, CTX-M-15 (Escherichia coli, UniProt Q9EXV5); experiment: β-lactamase inhibitory activity, nitrocefin hydrolysis; assay type: biochemical
T8 construct: made in house; host or cells: E. coli
T8 sequence (Q9EXV5 entry or part of it): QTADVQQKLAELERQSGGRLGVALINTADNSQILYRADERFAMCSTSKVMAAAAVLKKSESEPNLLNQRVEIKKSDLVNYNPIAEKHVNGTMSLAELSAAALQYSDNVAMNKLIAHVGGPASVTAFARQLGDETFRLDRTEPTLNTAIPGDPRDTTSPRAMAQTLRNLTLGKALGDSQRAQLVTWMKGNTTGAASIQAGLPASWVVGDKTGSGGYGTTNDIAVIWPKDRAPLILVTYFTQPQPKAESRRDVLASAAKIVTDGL
Experimental: as §1

[26] = test system: K. pneumoniae 6299 (TEM-1, SHV-11, OXA-163); experiment: MIC broth microdilution, alone and synergy with ceftazidime
[27] = test system: E. coli RGN238 (OXA-1); experiment: as above
[28] = test system: K. pneumoniae UFR68 (TEM-1, SHV-11, CTX-M-15, KPC-3); experiment: as above
[29] = test system: K. pneumoniae 200047 (TEM-1, SHV-32, CTX-M-15, OXA-1); experiment: as above
[30] = Escherichia coli, read-out: MIC compounds of the invention alone
[31] = Enterobacter cloacae, read-out: MIC compounds of the invention alone
[32] = Klebsiella pneumoniae, read-out: MIC compounds of the invention alone

Cn1c2c(sc1=O)C1CN(C2)C(=O)N1OS(=O)(=O)[O-].[Na+] (stereo not drawn) [Example 1, Sodium (5-methyl-4,9-dioxo-3-thia-5,8,10-triaza-tricyclo[6.2.1.0^2.6]undec-2(6)-en-10-yl) sulfate]
MIC [1, 30]: 8 µg/mL
MIC of CAZ in combination with compound at 4 μg/mL ([1]; strain UFR52, compound fixed at 4 μg/mL): 0.5 µg/mL
MIC of CAZ in combination with compound at 4 μg/mL [2]: 0.5 µg/mL
MIC of CAZ in combination with compound at 4 μg/mL [3]: ≤0.125 µg/mL
MIC ([4]; Klebsiella oxytoca, read-out: MIC compounds of the invention alone): 8 µg/mL
MIC of CAZ in combination with compound at 4 μg/mL ([4]; strain UFR21, compound fixed at 4 μg/mL): 2 µg/mL
MIC [5, 31]: 4 µg/mL
MIC of CAZ in combination with compound at 4 μg/mL ([5]; strain UFR70, compound fixed at 4 μg/mL): <0.25 µg/mL
MIC [6, 31]: 8 µg/mL
MIC of CAZ in combination with compound at 4 μg/mL ([6]; strain UFR38, compound fixed at 4 μg/mL): >128 µg/mL
pIC50 [7]: 9.05
MIC ([8]; Pseudomonas aeruginosa, CIP107051, read-out: MIC compounds of the invention alone): > 128 µg/mL
MIC of CAZ in combination with compound at 4 μg/mL ([8]; strain CIP107051, compound fixed at 4 μg/mL): 4 µg/mL
MIC of CAZ in combination with compound at 4 μg/mL [9]: <0.25 µg/mL
MIC of CAZ in combination with compound at 4 μg/mL [10]: <0.25 µg/mL
MIC [11, 30]: 1 µg/mL
MIC of CAZ in combination with compound at 4 μg/mL ([11]; strain 131119, compound fixed at 4 μg/mL): <0.25 µg/mL
MIC of CAZ in combination with compound at 4 μg/mL [12]: 4 µg/mL
pIC50 [13]: 7.40
MIC of CAZ in combination with compound at 4 μg/mL [14]: <0.25 µg/mL
pIC50 [15]: 8.48
pIC50 [16]: 7.20
MIC [17, 30]: 4 µg/mL
MIC of CAZ in combination with compound at 4 μg/mL ([17]; strain UFR18, compound fixed at 4 μg/mL): <0.25 µg/mL
MIC [18]: > 32 µg/mL
pIC50 [19]: 7.92
pIC50 [20]: 8.48
pIC50 [21]: 7.32
MIC ([22]; Klebsiella pneumoniae, BAA1898, read-out: MIC compounds of the invention alone): 16 µg/mL
MIC of CAZ in combination with compound at 4 μg/mL ([22]; strain BAA-1898, compound fixed at 4 μg/mL): 64 µg/mL
MIC of CAZ in combination with compound at 4 μg/mL [23]: <0.25 µg/mL
MIC [24, 32]: 8 µg/mL
MIC of CAZ in combination with compound at 4 μg/mL ([24]; strain UFR77, compound fixed at 4 μg/mL): ≤0.25 µg/mL
pIC50 [25]: 9.16
MIC [26, 32]: 16 µg/mL
MIC of CAZ in combination with compound at 4 μg/mL ([26]; strain 6299, compound fixed at 4 μg/mL): 4 µg/mL
MIC [27, 30]: 2 µg/mL
MIC of CAZ in combination with compound at 4 μg/mL ([27]; strain RGN238, compound fixed at 4 μg/mL): <0.25 µg/mL
MIC [28, 32]: 32 µg/mL
MIC of CAZ in combination with compound at 4 μg/mL ([28]; strain UFR68, compound fixed at 4 μg/mL): 64 µg/mL
MIC [29, 32]: 4 µg/mL
MIC of CAZ in combination with compound at 4 μg/mL ([29]; strain 200047, compound fixed at 4 μg/mL): <0.25 µg/mL
